According to the supplement of paper PMC10307832:

How the values were obtained:
Assay in all cases: relative viability (nuclei count vs DMSO), 5 days (fraction); higher = more cells survive
Vismodegib + Phenformin = compound: CS(=O)(=O)c1ccc(C(=O)Nc2ccc(Cl)c(-c3ccccn3)c2)c(Cl)c1 [Vismodegib] + N=C(N)NC(=N)NCCc1ccccc1 [Phenformin] (partner 250 µM)
Method in brief: (§1)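 Relative viability equals treated-well nuclei counts divided by vehicle-well nuclei counts. Counts came from 4× images of lung cancer cell lines grown in 1536-well plates for 5 days after pin-tool dosing on the day after seeding. Dosing used one drug alone or a fixed anchor-drug dose plus five library-drug doses (not always all listed) in √10 steps, and values are medians of duplicate plates.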

VE-821 + Olaparib = compound: CS(=O)(=O)c1ccc(-c2cnc(N)c(C(=O)Nc3ccccc3)n2)cc1 [VE-821] + O=C(c1cc(Cc2n[nH]c(=O)c3ccccc23)ccc1F)N1CCN(C(=O)C2CC2)CC1 [Olaparib] (partner 8 µM)
Method in brief: as §1

Vismodegib + Linsitinib = compound: CS(=O)(=O)c1ccc(C(=O)Nc2ccc(Cl)c(-c3ccccn3)c2)c(Cl)c1 [Vismodegib] + C[C@]1(O)C[C@@H](c2nc(-c3ccc4ccc(-c5ccccc5)nc4c3)c3c(N)nccn32)C1 [Linsitinib] (partner 1 µM)
Method in brief: as §1

VE-821 + Tozasertib = compound: CS(=O)(=O)c1ccc(-c2cnc(N)c(C(=O)Nc3ccccc3)n2)cc1 [VE-821] + Cc1cc(Nc2cc(N3CCN(C)CC3)nc(Sc3ccc(NC(=O)C4CC4)cc3)n2)n[nH]1 [Tozasertib] (partner 0.1 µM)
Method in brief: as §1

Cell Line	relative viability (Vismodegib + Phenformin; first compound 0.08 µM)	relative viability (Vismodegib + Phenformin; first compound 0.253 µM)	relative viability (Vismodegib + Phenformin; first compound 0.8 µM)	relative viability (Vismodegib + Phenformin; first compound 2.53 µM)	relative viability (Vismodegib + Phenformin; first compound 8 µM)	relative viability (VE-821 + Olaparib; first compound 0.08 µM)	relative viability (VE-821 + Olaparib; first compound 0.253 µM)	relative viability (VE-821 + Olaparib; first compound 0.8 µM)	relative viability (VE-821 + Olaparib; first compound 2.53 µM)	relative viability (VE-821 + Olaparib; first compound 8 µM)	relative viability (Vismodegib + Linsitinib; first compound 0.08 µM)	relative viability (Vismodegib + Linsitinib; first compound 0.253 µM)	relative viability (Vismodegib + Linsitinib; first compound 0.8 µM)	relative viability (Vismodegib + Linsitinib; first compound 2.53 µM)	relative viability (Vismodegib + Linsitinib; first compound 8 µM)	relative viability (VE-821 + Tozasertib; first compound 0.08 µM)	relative viability (VE-821 + Tozasertib; first compound 0.253 µM)	relative viability (VE-821 + Tozasertib; first compound 0.8 µM)	relative viability (VE-821 + Tozasertib; first compound 2.53 µM)	relative viability (VE-821 + Tozasertib; first compound 8 µM)
LK-2	0.617	0.619	0.431	0.366	0.373	0.991	0.826	0.879	0.916	0.69	0.427	0.49	0.539	0.46	0.378	0.172	0.174	0.161	0.197	0.202
NCI-H1993	0.448	0.531	0.519	0.514	0.498	1.21	0.943	1.03	1.01	0.942	0.737	0.816	0.669	0.677	0.775	0.685	0.556	0.567	0.513	0.549
A-427	0.307	0.385	0.385	0.314	0.283	0.797	0.71	0.618	0.556	0.389	1.12	1.09	1.11	1.11	1.12	0.231	0.186	0.217	0.192	0.144
NCI-H2347	0.336	0.477	0.448	0.361	0.464	0.574	0.531	0.598	0.618	0.635	0.902	0.997	0.857	0.962	1.04	0.506	0.6	0.272	0.498	0.506
BEN	0.249	0.281	0.292	0.255	0.248	1.17	1.01	0.902	0.768	1.08	0.951	0.939	0.929	0.964	0.99	0.591	0.579	0.495	0.631	0.589
NCI-H23	0.765	0.728	0.806	0.742	0.731	0.311	0.245	0.201	0.195	0.125	0.591	0.511	0.643	0.488	0.677	0.323	0.559	0.263	0.192	0.179
LU99A	0.901	0.807	0.813	0.802	0.772	0.245	0.228	0.176	0.143	0.122	0.521	0.507	0.508	0.464	0.621	0.264	0.299	0.277	0.24	0.227
ABC-1	0.231	0.253	0.241	0.24	0.235	0.776	0.873	0.755	0.869	0.757	0.666	0.682	0.79	0.821	0.794	0.201	0.17	0.15	0.181	0.16
SW 1573	0.493	0.353	0.4	0.323	0.385	0.533	0.516	0.418	0.269	0.21	0.823	0.728	0.789	0.64	0.821	0.164	0.174	0.181	0.216	0.197
NCI-H2009	0.467	0.474	0.478	0.45	0.467	0.701	0.661	0.57	0.566	0.499	1.14	1.18	1.19	1.16	1.26	0.871	0.74	0.633	0.737	0.734
HCC-15	0.511	0.458	0.472	0.496	0.441	0.77	0.703	0.894	0.735	0.558	0.896	0.876	0.834	1.01	0.897	0.451	0.361	0.322	0.347	0.309
EPLC-272H	0.348	0.313	0.316	0.271	0.264	0.949	0.829	0.504	0.608	0.255	1.24	1.18	0.986	1.04	1.1	0.363	0.26	0.374	0.211	0.154
HCC-78	0.664	0.704	0.575	0.615	0.683	0.8	0.931	0.772	0.946	0.736	0.474	0.477	0.406	0.588	0.488	0.461	0.362	0.385	0.372	0.321
LXF-289	0.524	0.495	0.508	0.517	0.467	1.3	1.05	1.24	1.37	0.903	0.959	0.929	0.98	0.976	0.919	0.246	0.196	0.205	0.193	0.119
NCI-H460	0.516	0.512	0.561	0.508	0.595	0.52	0.378	0.231	0.138	0.118	0.732	0.74	0.773	0.733	1.08	0.492	0.343	0.0499	0.0583	0.0489
NCI-H2023	0.367	0.364	0.43	0.384	0.401	0.576	0.4	0.222	0.169	0.0964	0.596	0.662	0.675	0.579	0.618	0.401	0.297	0.129	0.107	0.0977
SK-LU-1	0.569	0.489	0.538	0.477	0.705	0.51	0.497	0.462	0.401	0.324	1.35	1.06	1.23	0.693	1.13	0.383	0.286	0.274	0.208	0.193

Cell Line	relative viability (Vismodegib + Phenformin; first compound 0.08 µM)	relative viability (Vismodegib + Phenformin; first compound 0.253 µM)	relative viability (Vismodegib + Phenformin; first compound 0.8 µM)	relative viability (Vismodegib + Phenformin; first compound 2.53 µM)	relative viability (Vismodegib + Phenformin; first compound 8 µM)	relative viability (VE-821 + Olaparib; first compound 0.08 µM)	relative viability (VE-821 + Olaparib; first compound 0.253 µM)	relative viability (VE-821 + Olaparib; first compound 0.8 µM)	relative viability (VE-821 + Olaparib; first compound 2.53 µM)	relative viability (VE-821 + Olaparib; first compound 8 µM)	relative viability (Vismodegib + Linsitinib; first compound 0.08 µM)	relative viability (Vismodegib + Linsitinib; first compound 0.253 µM)	relative viability (Vismodegib + Linsitinib; first compound 0.8 µM)	relative viability (Vismodegib + Linsitinib; first compound 2.53 µM)	relative viability (Vismodegib + Linsitinib; first compound 8 µM)	relative viability (VE-821 + Tozasertib; first compound 0.08 µM)	relative viability (VE-821 + Tozasertib; first compound 0.253 µM)	relative viability (VE-821 + Tozasertib; first compound 0.8 µM)	relative viability (VE-821 + Tozasertib; first compound 2.53 µM)	relative viability (VE-821 + Tozasertib; first compound 8 µM)
NCI-H1734	0.384	0.316	0.396	0.322	0.384	0.708	0.673	0.558	0.498	0.303	0.878	0.831	0.878	0.825	1.01	0.292	0.245	0.235	0.24	0.226
PC-3 [JPC-3]	0.483	0.48	0.457	0.483	0.483	1.19	1.15	1.24	1.12	0.958	0.934	0.941	1.04	0.988	0.933	0.956	0.819	0.881	0.805	0.787
HCC-827	0.39	0.406	0.381	0.384	0.408	0.735	0.753	0.136	0.734	0.711	0.926	0.906	0.949	0.896	1.04	0.427	0.424	0.391	0.394	0.372
NCI-H2405	0.336	0.386	0.381	0.381	0.39	0.937	0.828	0.846	0.997	0.805		0.859	0.806	0.776	1.07	0.824	0.714	0.713	0.726	0.742
HOP-62	0.645	0.637	0.665	0.698	0.569	0.375	0.477	0.418	0.212	0.252	0.988	0.873	1.16	0.748	0.979	0.399	0.404	0.349	0.382	0.361
LCLC-97TM1	0.443	0.407	0.42	0.452	0.407	0.483	0.373	0.418	0.359	0.166			0.174		0.211	0.307	0.224	0.213	0.484	0.184
NCI-H3122	0.377	0.356	0.362	0.365	0.36	0.622	0.495	0.432	0.378	0.221	1.03	1.01	1.01	0.924	0.965	0.389	0.383	0.369	0.418	0.306
PC-14	0.658	0.444	0.567	0.512	0.602	0.292	0.282	0.167	0.137	0.097	0.897	0.911	0.982	0.899	0.998	0.592	0.585	0.483	0.531	0.54
HCC-366	0.683	0.614	0.631	0.619	0.586	0.654	0.342	0.19	0.0816	0.0499	0.628	0.636	0.575	0.563	0.703	0.0768	0.0713	0.0434	0.0568	0.0298
HARA	0.47	0.355	0.537	0.503	0.415	0.695	0.798	0.583	0.387	0.391	0.844	0.944	0.76	0.967	1.04	0.109	0.111	0.106	0.112	0.0878
COR-L 105	0.498	0.441	0.516	0.506	0.495	0.708	0.638	0.434	0.561	0.484	0.781	0.978	0.965	1.01	0.849	0.37	0.373	0.374	0.284	0.333
NCI-H1395	0.345	0.397	0.411	0.439	0.485	0.422	0.49	0.481	0.441	0.438	1.07	1.36	0.961	0.961	1.18	0.765	0.716	0.671	0.703	0.762
EMC-BAC-2	0.571	0.53	0.5	0.506	0.502	0.606	0.495	0.559	0.46	0.383	0.785	0.803	0.914	0.776	0.82	0.344	0.306	0.322	0.253	0.277
NCI-H1666	0.557	0.587	0.535	0.517	0.565	0.758	0.742	0.839	0.944	0.79	0.877	0.871	0.69	0.773	0.967	0.625	0.684	0.646	0.644	0.603
H3255	0.362	0.378	0.362	0.324	0.413	0.576	0.532	0.553	0.535	0.493	0.967	0.88	1	0.959	0.897	0.74	0.777	0.633	0.639	0.612
NCI-H1793		0.36	0.358	0.365	0.375	1	0.878		0.763	0.547		0.701	0.903	1.04	0.824	0.323	0.257	0.182	0.234	0.159
